Columns and labels:
Experiment in all cases: relative viability (nuclei count vs DMSO), 5 days (fraction); higher = more cells survive
[1] = compound: CCn1c(-c2nonc2N)nc2cnc(Oc3cccc(NC(=O)c4ccc(OCCN5CCOCC5)cc4)c3)cc21 + CC(C)C[C@H](NC(=O)[C@H](Cc1ccccc1)NC(=O)c1cnccn1)B(O)O [Bortezomib] (partner 0.002 µM)
Summary of the method: (§1)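 One day after seeding in 1536-well plates, lung cancer cell lines were dosed by pin tool. Dosing was either single-drug or a fixed anchor-drug dose plus five library-drug doses (not always all listed) in √10 steps. After 5 days, nuclei were stained in one fix-and-stain step and counted on 4× images, and relative viability is the nuclei count of treated wells over that of vehicle wells, given as the median of duplicate plates.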

Mirin + Trametinib = compound: N=C1NC(=O)/C(=C/c2ccc(O)cc2)S1 [Mirin] + CC(=O)Nc1cccc(-n2c(=O)n(C3CC3)c(=O)c3c(Nc4ccc(I)cc4F)n(C)c(=O)c(C)c32)c1 [Trametinib] (partner 0.02 µM)
Summary of the method: as §1

[2] = compound: CCn1c(-c2nonc2N)nc2cnc(Oc3cccc(NC(=O)c4ccc(OCCN5CCOCC5)cc4)c3)cc21 + C[C@@H](Oc1cc(-c2cnn(C3CCNCC3)c2)cnc1N)c1c(Cl)ccc(F)c1Cl [Crizotinib] (partner 1 µM)
Summary of the method: as §1

Mirin + Pictilisib = compound: N=C1NC(=O)/C(=C/c2ccc(O)cc2)S1 [Mirin] + CS(=O)(=O)N1CCN(Cc2cc3nc(-c4cccc5[nH]ncc45)nc(N4CCOCC4)c3s2)CC1 [Pictilisib] (partner 1 µM)
Summary of the method: as §1

UMC-11
relative viability ([1]; first compound 0.04 µM): 0.999
relative viability ([1]; first compound 0.1265 µM): 0.439
relative viability ([1]; first compound 0.4 µM): 0.312
relative viability ([1]; first compound 1.265 µM): 0.161
relative viability ([1]; first compound 4 µM): 0.135
relative viability (Mirin + Trametinib; first compound 0.25 µM): 0.721
relative viability (Mirin + Trametinib; first compound 0.7906 µM): 0.381
relative viability (Mirin + Trametinib; first compound 2.5 µM): 0.778
relative viability (Mirin + Trametinib; first compound 7.906 µM): 0.558
relative viability (Mirin + Trametinib; first compound 25 µM): 0.496
relative viability ([2]; first compound 0.04 µM): 0.924
relative viability ([2]; first compound 0.1265 µM): 0.743
relative viability ([2]; first compound 0.4 µM): 0.577
relative viability ([2]; first compound 1.265 µM): 0.135
relative viability ([2]; first compound 4 µM): 0.121
relative viability (Mirin + Pictilisib; first compound 0.25 µM): 0.798
relative viability (Mirin + Pictilisib; first compound 0.7906 µM): 0.164
relative viability (Mirin + Pictilisib; first compound 2.5 µM): 0.849
relative viability (Mirin + Pictilisib; first compound 7.906 µM): 0.509
relative viability (Mirin + Pictilisib; first compound 25 µM): 0.4

— the supplement of paper PMC10307832
